Species on record: Rattus norvegicus
Assay: Open TG-GATES - Regimen: Single
Assay type: toxicity, organism-based, Sprague-Dawley
Design: regimen Single, gender Male, age 6 weeks
Conditions: in vivo, po, 1000 mg/kg, route gavage, dose level High; for APTT / Bas / Eos / Fbg / Hb / Ht / Lym / MCH / MCHC / MCV / Mono / Neu / PT / Plat / RBC / Ret / WBC: tissue Blood; for KIDNEY_L / KIDNEY_R / KIDNEY_TOTAL: tissue Kidney; for LIVER: tissue Liver; for A/G / ALP / ALT / AST / BUN / CRE / Ca / Cl / DBIL / GLC / IP / LDH / Na / PL / RALB / TBIL / TC / TG / TP / gamma-GTP: tissue Plasma

For NC(N)=Nc1nc(CSCCC(N)=NS(N)(=O)=O)cs1 [FAMOTIDINE], the TERMINAL_BW (3 h) was 216.4 g, the APTT (3 h) was 18.8 s and the Bas (3 h) was 0%. The Eos (3 h) was 1%, the Fbg (3 h) was 209.8 mg/dL and the Hb (3 h) was 12.9 g/dL. It also gave a Ht (3 h) of 37.1%, a Lym (3 h) of 80.8% and an MCH (3 h) of 20.8 pg. For the same compound, the MCHC (3 h) was 34.8%, the MCV (3 h) was 59.8 fL and the Mono (3 h) was 2.8%. The Neu (3 h) was 14%, the PT (3 h) was 12.6 s and the Plat (3 h) was 124.2 x10_4/uL. For the same compound, the RBC (3 h) was 620.2 x10_4/ul, the Ret (3 h) was 7.6% and the WBC (3 h) was 90.8 x10_2/uL. It also gave a KIDNEY_L (3 h) of 1 g, a KIDNEY_R (3 h) of 1 g and a KIDNEY_TOTAL (3 h) of 1.9 g. It also gave an LIVER (3 h) of 10.2 g, an A/G (3 h) of 1.6 and an ALP (3 h) of 873.2 IU/L. It also gave an ALT (3 h) of 35.6 IU/L, an AST (3 h) of 66.6 IU/L and a BUN (3 h) of 9.4 mg/dL. For the same compound, the CRE (3 h) was 0.4 mg/dL, the Ca (3 h) was 10.7 mg/dL and the Cl (3 h) was 103.4 meq/L. It also gave a DBIL (3 h) of 0.07 mg/dL, a GLC (3 h) of 194.4 mg/dL and an IP (3 h) of 9 mg/dL. For the same compound, the LDH (3 h) was 188.8 IU/L, the Na (3 h) was 140 meq/L and the PL (3 h) was 149.4 mg/dL. The RALB (3 h) was 3.3 g/dL, the TBIL (3 h) was 0.1 mg/dL and the TC (3 h) was 81.2 mg/dL. The TG (3 h) was 51.8 mg/dL, the TP (3 h) was 5.3 g/dL and the gamma-GTP (3 h) was 1.2 IU/L. It also gave a TERMINAL_BW (6 h) of 212.4 g, an APTT (6 h) of 20.5 s and a Bas (6 h) of 0%. For the same compound, the Eos (6 h) was 1%, the Fbg (6 h) was 217.8 mg/dL and the Hb (6 h) was 13.4 g/dL. For the same compound, the Ht (6 h) was 37.7%, the Lym (6 h) was 74% and the MCH (6 h) was 21.7 pg. For the same compound, the MCHC (6 h) was 35.4%, the MCV (6 h) was 61.2 fL and the Mono (6 h) was 2.8%. For the same compound, the Neu (6 h) was 20.6%, the PT (6 h) was 12.5 s and the Plat (6 h) was 112.6 x10_4/uL. It also gave an RBC (6 h) of 617 x10_4/ul, a Ret (6 h) of 6.9% and a WBC (6 h) of 73.8 x10_2/uL. For the same compound, the KIDNEY_L (6 h) was 1 g, the KIDNEY_R (6 h) was 1 g and the KIDNEY_TOTAL (6 h) was 1.9 g. The LIVER (6 h) was 9 g, the A/G (6 h) was 1.6 and the ALP (6 h) was 885.4 IU/L. It also gave an ALT (6 h) of 31.8 IU/L, an AST (6 h) of 65.8 IU/L and a BUN (6 h) of 8.6 mg/dL. It also gave a CRE (6 h) of 0.4 mg/dL, a Ca (6 h) of 10.6 mg/dL and a Cl (6 h) of 104 meq/L. It also gave a DBIL (6 h) of 0.072 mg/dL, a GLC (6 h) of 192.4 mg/dL and an IP (6 h) of 8.9 mg/dL. The LDH (6 h) was 204.2 IU/L, the Na (6 h) was 141 meq/L and the PL (6 h) was 140.4 mg/dL. It also gave an RALB (6 h) of 3.4 g/dL, a TBIL (6 h) of 0.1 mg/dL and a TC (6 h) of 73 mg/dL. For the same compound, the TG (6 h) was 50.8 mg/dL, the TP (6 h) was 5.5 g/dL and the gamma-GTP (6 h) was 1.4 IU/L. The TERMINAL_BW (9 h) was 211.3 g, the APTT (9 h) was 16.7 s and the Bas (9 h) was 0%. For the same compound, the Eos (9 h) was 0.8%, the Fbg (9 h) was 222.2 mg/dL and the Hb (9 h) was 13.1 g/dL. For the same compound, the Ht (9 h) was 36.5%, the Lym (9 h) was 78% and the MCH (9 h) was 22 pg. It also gave an MCHC (9 h) of 35.9%, an MCV (9 h) of 61.4 fL and a Mono (9 h) of 2.4%. For the same compound, the Neu (9 h) was 17%, the PT (9 h) was 12.4 s and the Plat (9 h) was 112.4 x10_4/uL. It also gave an RBC (9 h) of 594.2 x10_4/ul, a Ret (9 h) of 7.3% and a WBC (9 h) of 68.5 x10_2/uL. For the same compound, the KIDNEY_L (9 h) was 1 g, the KIDNEY_R (9 h) was 1 g and the KIDNEY_TOTAL (9 h) was 1.9 g. For the same compound, the LIVER (9 h) was 8.6 g, the A/G (9 h) was 1.6 and the ALP (9 h) was 861.4 IU/L. It also gave an ALT (9 h) of 28 IU/L, an AST (9 h) of 59.8 IU/L and a BUN (9 h) of 9.8 mg/dL. For the same compound, the CRE (9 h) was 0.4 mg/dL, the Ca (9 h) was 10.3 mg/dL and the Cl (9 h) was 103.8 meq/L. It also gave a DBIL (9 h) of 0.052 mg/dL, a GLC (9 h) of 205.6 mg/dL and an IP (9 h) of 9 mg/dL. For the same compound, the LDH (9 h) was 150 IU/L, the Na (9 h) was 140 meq/L and the PL (9 h) was 151.4 mg/dL. It also gave an RALB (9 h) of 3.3 g/dL, a TBIL (9 h) of 0.1 mg/dL and a TC (9 h) of 85.2 mg/dL. It also gave a TG (9 h) of 27.2 mg/dL, a TP (9 h) of 5.4 g/dL and a gamma-GTP (9 h) of 0.8 IU/L. For the same compound, the TERMINAL_BW (24 h) was 223.1 g, the APTT (24 h) was 22.2 s and the Bas (24 h) was 0%. It also gave an Eos (24 h) of 1%, a Fbg (24 h) of 218.4 mg/dL and a Hb (24 h) of 13.3 g/dL. For the same compound, the Ht (24 h) was 37.1%, the Lym (24 h) was 77.2% and the MCH (24 h) was 21.8 pg. It also gave an MCHC (24 h) of 35.9%, an MCV (24 h) of 60.7 fL and a Mono (24 h) of 2.8%. It also gave a Neu (24 h) of 17.2%, a PT (24 h) of 12.3 s and a Plat (24 h) of 129.4 x10_4/uL. The RBC (24 h) was 612.2 x10_4/ul, the Ret (24 h) was 5.8% and the WBC (24 h) was 77.3 x10_2/uL. For the same compound, the KIDNEY_L (24 h) was 1 g, the KIDNEY_R (24 h) was 1 g and the KIDNEY_TOTAL (24 h) was 2.1 g. The LIVER (24 h) was 9.6 g, the A/G (24 h) was 1.6 and the ALP (24 h) was 1062.2 IU/L. The ALT (24 h) was 39 IU/L, the AST (24 h) was 65.4 IU/L and the BUN (24 h) was 14.4 mg/dL. For the same compound, the CRE (24 h) was 0.4 mg/dL, the Ca (24 h) was 10.5 mg/dL and the Cl (24 h) was 102.6 meq/L. It also gave a DBIL (24 h) of 0.078 mg/dL, a GLC (24 h) of 199.6 mg/dL and an IP (24 h) of 8.2 mg/dL. For the same compound, the LDH (24 h) was 165 IU/L, the Na (24 h) was 140.2 meq/L and the PL (24 h) was 137.6 mg/dL. For the same compound, the RALB (24 h) was 3.3 g/dL, the TBIL (24 h) was 0.1 mg/dL and the TC (24 h) was 76.2 mg/dL. For the same compound, the TG (24 h) was 67.4 mg/dL, the TP (24 h) was 5.5 g/dL and the gamma-GTP (24 h) was 1 IU/L.
